Results: patent US9018391B2, “Inhibitors of beta-secretase” (Boehringer Ingelheim International GmbH, priority 2012, dated 2015)

Experiments:
[1] = molecular target: truncated human beta-secretase, BACE1 (amino acids 1-454) (Homo sapiens (Human), UniProt P56817); test: BACE1 Assay (Assay 1), fluorescence quench assay; format: biochemical; details: pH 4.4
Method: The substrate was dissolved at 1 mg/ml in DMSO.
The assay was performed in the presence of OptiMEM™ (supernatant collected over 24 h and cleared from cellular debris by centrifugation) containing the ectodomain of BACE1, 25 μl water containing the desired 2-fold concentration of test compound and 2% DMSO, 1 μM substrate peptide, 20 mM NaOAc, pH 4.4, and 0.04% Triton-X100 in a total assay volume of 50 μl in a 384 well plate. In general, 25 μl of compound dilution were added to the plate followed by the addition of 10 μl of BACE1 containing OptiMEM™ diluted 1:10 in water with 0.2% Triton X-100. The reaction was started with the addition of 15 μl substrate in NaOAc buffer. The reaction was incubated at rt (dark) in an Envision® multilabel reader (Perkin Elmer) and the cleavage of the substrate was recorded as kinetic for […] at ex: 485 nm, em: 538 nm. Blank wells containing no enzyme were included on each plate.
The intensity of fluorescence was regressed against time in order to derive velocities of reaction in all 384 wells. These velocities were used for calculating percent control using an uninhibited control containing 1% DMSO as 100% and a blank control performed in the absence of enzyme as 0%. IC50 values were calculated by fitting percent control vs. test compound concentration using Assay Explorer®.

hERG channel = hERG channel (Homo sapiens (Human), UniProt Q12809); test: hERG-Channel Assay (Assay 2), whole-cell patch clamp in HEK293 cells stably transfected with hERG cDNA; format: cell-based; details: for inhibition at 10 µM: human, HEK293 cells stably transfected with hERG cDNA, pH 7.4, 35° C.; for % Inhibition hERG @ 10 μM (assay 2): 35° C.
Text: hERG-Channel Assay (Assay 2)
Cells: HEK (human embryonic kidney) 293 cells were stably transfected with hERG cDNA.
Cells were superfused with a bath solution containing (mM): NaCl (137), KCl (4.0), MgCl2 (1.0), CaCl2 (1.8), Glucose (10), HEPES (10), pH 7.4 with NaOH. Patch pipettes were made from borosilicate glass tubing using a horizontal puller and filled with pipette solution containing (mM): K-aspartate (130), MgCl2 (5.0), EGTA (5.0), K2ATP (4.0), HEPES (10.0), pH 7.2 with KOH. Resistance of the microelectrodes was in the range between 2 and 5 MΩ.
Stimulation and Recording:
Membrane currents were recorded using an EPC-10 patch clamp amplifier and PatchMaster software. hERG-mediated membrane currents were recorded at 35° C., using the whole-cell configuration of the patch-clamp technique. Transfected HEK293 cells were clamped at a holding potential of −60 mV and hERG-mediated inactivating tail currents were elicited using a pulse pattern with fixed amplitudes (activation/inactivation: 40 mV for 2000 ms; recovery: −120 mV for 2 ms; ramp to 40 mV in 2 ms; inactivating tail current: 40 mV for 50 ms) repeated at 15 s intervals. During each inter-pulse interval, 4 pulses scaled down by a factor of 0.2 were recorded for a P/n leak subtraction procedure. Rs compensation was employed up to a level that safely allowed recording devoid of ringing.
Compound Preparation and Application:
The different concentrations of the test compounds were applied sequentially on each of the different cells investigated. A steady state level of baseline current was measured for at least 6 sweeps prior to the application of the first test compound concentration.
The test compound was dissolved in DMSO to yield a master stock solution which was diluted further in DMSO to stock solutions needed for the lower concentrations. Final dilutions in extracellular buffer were prepared freshly from these stocks by a 1:1000 dilution step each before starting the experiments.
Peak current amplitudes were measured 3 ms after the ramp to +40 mV. For baseline and each concentration, the peak currents of the three last sweeps before application of the next concentration were averaged. Residual currents (I/I0) were calculated for each cell as the fraction of actual average peak current and average baseline peak current.

[2] = In Vitro Phospholipidosis Assay (Assay 3), Nile red staining; format: cell-based, human; details: human, first effect concentration, U937 cells, read-out: Phospholipidosis FEC IC50 μM (assay 3)
Method: (§1) In Vitro Phospholipidosis Assay (Assay 3)
(§2) The phospholipidogenic potential of test compounds was assayed using the human hematopoetic U937 cell line. The test principle was to analyze the phospholipid content by staining the cells with the fluorescent dye Nile red.
(§3) U937 cells were seeded into cell culture plates at 0.5×10^6 cells/mL in RPMI medium containing 10% FBS, 1% DMSO, and 0.005% gentamicin. The cells were cultivated with or without different concentrations of test compound for 48 h under standard culture conditions.
(§4) For harvesting, the cells were centrifuged at 130×g for 4 min and washed once with PBS. Then, 2×0.5 mL cell suspensions were prepared for non-fixed cell measurement (0.5 mL for propidium iodide (PI) viability measurement and 0.5 mL for Nile red measurement).
(§5) The remaining cells were fixed with 3.7% formaldehyde for 30 min. After a further centrifugation step, cells were resuspended with 1.3 mL Nile red working solution (1 μg/mL) and incubated for 5 min at rt. The cell suspension was washed twice with 3 mL PBS and centrifuged with 130×g for 4 min. The supernatant was discarded and the cells were resuspended with 0.5 mL PBS and kept for flow cytometry measurement.
(§6) For Nile red staining of the 0.5 mL non-fixed cell samples, 50 μL of a ready to use Nile red solution (10 μg/mL) were added per sample. Samples were kept on ice for 5 min. Thereafter, they were washed once with 4 mL PBS (4° C., 250×g for 8 min) and finally resuspended in 400 μL PBS and kept for flow cytometry measurement.
(§7) For the viability measurement, 12.5 μL of the ready to use PI solution (10 μg/mL) were added to the 0.5 mL non-fixed cell suspension. After 15 min of incubation on ice, the samples were measured by flow cytometry using a Coulter Epics XL/MCL flow cytometer.
(§8) The viability of the cells of each sample was determined by flow cytometry measurement of the PI content at channel 2 (568-590 nm). Cut-off gates for the fluorescence-dependent differentiation between live and dead cells were defined based on the analysis of cell culture medium control samples.
(§9) Only samples with a cell viability of >=90% relative to control samples were analyzed for phospholipidosis. Each Nile red sample (non-fixed and fixed samples) was measured by flow cytometry at channel 1 (504-541 nm) and channel 4 (660-680 nm).
(§10) For each channel, relative Nile red fluorescence intensity of a test sample was calculated compared to control samples and expressed as a percentage of control fluorescence intensity. The assessment of the phospholipidogenic potential and the first effective concentration (FEC) of a test compound was done manually based on the fluorescence intensities at both wavelengths for the fixed cells, as well as for the non-fixed cells.

Human Hepatocytes = test: In Vitro Hepatocyte Stability Assay (Assay 4); format: in vitro ADME; details: predicted blood clearance as percent of hepatic blood flow
Method: In Vitro Hepatocyte Stability Assay (Assay 4)
The metabolic degradation of test compounds was assayed in a hepatocyte suspension. Cryopreserved hepatocytes were incubated in an appropriate buffer system (e.g., Dulbecco's modified eagle medium plus 3.5 μg glucagon/500 mL, 2.5 mg insulin/500 mL and 3.75 mg/500 mL hydrocortison) containing 5% species serum. Following a 30 min preincubation in an incubator (37° C., 10% CO2), 5 μl of test compound solution (80 μM; from 2 mM in DMSO stock solution diluted 1:25 with medium) were added into 395 μl hepatocyte suspension (cell density in the range 0.25−5×10^6 cells/mL, typically 1×10^6 cells/mL; final concentration of test compound final DMSO concentration […]).
The cells were incubated for six h (incubator, orbital shaker) and samples (25 μl) were taken at 0, 0.5, 1, 2, 4 and 6 h. Samples were transferred into acetonitrile and pelleted by centrifugation (5 min). The supernatant was transferred to a new 96 DeepWell™ plate, evaporated under nitrogen and resuspended. Decline of compound was analyzed by HPLC-MS/MS. CLint (in vitro hepatic intrinsic clearance) was calculated as follows: CLint=Dose/AUC=(C0/CD)/(AUD+Clast/k)×1000/60
C0: initial concentration in the incubation [μM];
CD: cell density of vital cells [cells/mL];
AUD: area under the data [μM×h];
Clast: concentration of last data point [μM];
k: slope of the regression line for compound decline [h^−1].
The calculated in vitro hepatic intrinsic clearance was scaled up to the intrinsic in vivo hepatic clearance (Clint in vivo) and used to predict hepatic in vivo blood clearance (CL) by the use of a liver model (well-stirred model), as follows: CLint,in vivo[mL/min/kg]=(CLint[μL/min/10^6 cells]×hepatocellularity[10^6 cells/g liver]×liver factor [g/kg body weight])/1000 CL[mL/min/kg]=CLint,to vivo×hepatic blood flow[ml/min/kg]/(CLint,in vivo[ml/min/kg]+hepatic blood flow[mL/min/kg])
The in vivo blood clearance was transformed into percent of the hepatic blood flow (% Qh): % Qh=CL[mL/min/kg]/hepatic blood flow[mL/min/kg])×100
Hepatocellularity, human: 1.2×10^7 cells/g liver;
Liver factor, human: 25.7 g/kg body weight;
Hepatic blood flow, human: 21 mL/(min×kg).

[3] = test system: human hematopoetic U937 cell line; test: In Vitro Phospholipidosis Assay (Assay 3), Nile red staining; format: cell-based; details: first effect concentration; U937 cells, 48 h; read-out: Phospholipidosis FEC IC50 μM (assay 3)
Method: as §1, §2, §3, §4, §5, §6, §7, §8, §9, §10

truncated human beta-secretase, BACE1 (amino acids 1-454), sequence (P56817 22-454): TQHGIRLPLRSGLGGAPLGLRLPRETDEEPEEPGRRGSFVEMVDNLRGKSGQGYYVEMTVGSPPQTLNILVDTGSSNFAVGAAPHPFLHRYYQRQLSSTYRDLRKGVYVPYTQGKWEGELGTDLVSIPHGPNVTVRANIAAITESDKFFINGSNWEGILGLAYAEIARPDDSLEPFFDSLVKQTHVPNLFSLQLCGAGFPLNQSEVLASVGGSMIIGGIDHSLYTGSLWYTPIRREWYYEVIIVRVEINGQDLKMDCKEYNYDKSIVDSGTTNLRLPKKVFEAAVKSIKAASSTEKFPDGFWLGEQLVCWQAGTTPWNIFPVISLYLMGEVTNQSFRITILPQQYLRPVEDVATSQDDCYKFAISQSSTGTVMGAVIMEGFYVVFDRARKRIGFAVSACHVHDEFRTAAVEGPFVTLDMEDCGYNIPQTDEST
hERG channel, sequence (Q12809 whole entry): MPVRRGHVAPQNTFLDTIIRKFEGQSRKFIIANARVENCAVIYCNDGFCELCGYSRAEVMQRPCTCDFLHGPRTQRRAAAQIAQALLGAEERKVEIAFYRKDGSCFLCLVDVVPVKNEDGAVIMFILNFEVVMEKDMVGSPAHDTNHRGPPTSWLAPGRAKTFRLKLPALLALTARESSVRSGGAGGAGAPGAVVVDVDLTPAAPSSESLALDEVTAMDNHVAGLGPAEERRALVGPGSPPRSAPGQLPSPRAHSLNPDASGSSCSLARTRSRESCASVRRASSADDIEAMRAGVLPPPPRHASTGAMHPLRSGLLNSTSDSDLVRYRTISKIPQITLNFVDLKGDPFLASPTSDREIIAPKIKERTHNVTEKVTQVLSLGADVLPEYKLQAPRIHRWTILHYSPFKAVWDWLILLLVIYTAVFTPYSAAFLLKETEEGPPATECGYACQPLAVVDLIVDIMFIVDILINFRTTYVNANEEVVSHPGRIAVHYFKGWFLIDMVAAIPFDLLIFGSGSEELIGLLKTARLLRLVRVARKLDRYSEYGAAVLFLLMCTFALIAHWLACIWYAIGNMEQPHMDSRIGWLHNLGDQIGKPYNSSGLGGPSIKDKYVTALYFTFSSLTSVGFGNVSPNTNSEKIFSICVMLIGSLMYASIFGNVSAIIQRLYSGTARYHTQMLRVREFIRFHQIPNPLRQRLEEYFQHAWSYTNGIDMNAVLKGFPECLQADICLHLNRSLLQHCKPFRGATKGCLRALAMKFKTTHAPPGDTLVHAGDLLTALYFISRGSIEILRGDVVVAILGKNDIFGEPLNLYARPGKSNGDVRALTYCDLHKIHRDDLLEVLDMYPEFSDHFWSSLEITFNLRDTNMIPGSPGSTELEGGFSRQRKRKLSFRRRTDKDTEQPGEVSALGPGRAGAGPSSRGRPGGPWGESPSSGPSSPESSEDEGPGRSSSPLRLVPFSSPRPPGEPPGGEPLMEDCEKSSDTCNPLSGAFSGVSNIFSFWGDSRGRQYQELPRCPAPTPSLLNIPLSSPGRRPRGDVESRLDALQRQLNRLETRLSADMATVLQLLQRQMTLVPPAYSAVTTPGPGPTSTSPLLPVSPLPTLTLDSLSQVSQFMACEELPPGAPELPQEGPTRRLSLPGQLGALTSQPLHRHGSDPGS

SMILES: C[C@@H]1C[C@@]2(Cc3ccc(C#N)cc3[C@]23N=C(N)N(CCc2ccncc2)C3=O)C[C@H](C)[C@H]1O.O=C(O)C(F)(F)F [Example 15]
- IC50 [1]: 9.7 nM
- inhibition at 10 µM (hERG channel): 15.2%
- IC50 at 48 h [2]: 800 µM
- In vitro Human Hepatocytes % Qh @ 1 μM (assay 4) (Human Hepatocytes): 22.9 % Qh

SMILES: Cc1cc(CN2C(=O)[C@]3(N=C2N)c2cc(C#N)ccc2C[C@@]32C[C@@H](C)[C@H](O)[C@@H](C)C2)ccn1.O=C(O)C(F)(F)F [Example 16]
- IC50 [1]: 9.4 nM
- inhibition at 10 µM (hERG channel): 1.4%
- IC50 at 48 h [2]: 200 µM
- In vitro Human Hepatocytes % Qh @ 1 μM (assay 4) (Human Hepatocytes): 19 % Qh

SMILES: COC1CCC2(CC1)Cc1ccc(C#N)cc1[C@]21N=C(N)N(C)C1=O (stereo partly shown) [drawing 15, reference compound]
- % Inhibition hERG @ 10 μM (assay 2) (hERG channel): 90%
- IC50 [3]: 400 µM
- In vitro Human Hepatocytes % Qh @ 1 μM (assay 4) (Human Hepatocytes): 14 % Qh

SMILES: COC1CCC2(CC1)Cc1ccc(C#N)cc1[C@]21N=C(N)N(C)C1=O (stereo partly shown) [drawing 18, reference compound]
- % Inhibition hERG @ 10 μM (assay 2) (hERG channel): 90%
- IC50 [3]: 400 µM
- In vitro Human Hepatocytes % Qh @ 1 μM (assay 4) (Human Hepatocytes): 14 % Qh

SMILES: COC1CCC2(CC1)Cc1ccc(C#CC3CC3)cc1C21N=C(N)N(Cc2cncnc2)C1=O (stereo not shown) [reference compound]
- IC50 [1]: 1.1 nM
- inhibition at 10 µM (hERG channel): 60%
- IC50 at 48 h [2]: 25 µM
- In vitro Human Hepatocytes % Qh @ 1 μM (assay 4) (Human Hepatocytes): 36 % Qh

SMILES: COCCCOc1ccc2c(c1)C1(N=C(N)N(CC(F)F)C1=O)[C@]1(CC[C@H](OC)CC1)C2 (stereo partly shown) [reference compound]
- IC50 [1]: 7.3 nM
- inhibition at 10 µM (hERG channel): 36%
- IC50 at 48 h [2]: 50 µM
- In vitro Human Hepatocytes % Qh @ 1 μM (assay 4) (Human Hepatocytes): 43 % Qh
